In the test the test system is WI-38. Nature of the test: In vitro cytotoxicity against normal cell line WI-38. The test is classed as cell-based. To be noted: Homo sapiens, WI-38, read-out: IC50 WI38.
Broadly, the IC50 is the midpoint of a concentration-inhibition curve. Turning to `CN1CCC2(CC1)C/C(=N\N=C\c1ccc(N(C)C)cc1)c1ccccc1O2` [Compound 4b, N,N-Dimethyl-4-((E)-{(E)-[1′-methylspiro(chroman-2,4′-piperidin)-4-ylidene]hydrazono}methyl)aniline], the IC50 was 60.4 ± 3.7 µM. As to `CN1CCC2(CC1)C/C(=N\N=C\c1ccc(Cl)cc1)c1ccccc1O2` [Compound 4a, (E)-4-[(E)-(4-Chlorobenzylidene)hydrazono]-1′-methylspiro(chroman-2,4′-piperidine)], the IC50 amounted to 75.7 ± 4.3 µM.

Take `CN1CCC2(CC1)C/C(=N\N=C\c1ccc(O)cc1)c1ccccc1O2` [Compound 4d, 4-((E)-{(E)-[1′-Methylspiro(chroman-2,4′-piperidin)-4-ylidene]hydrazono}methyl)phenol]: the concentration for half-maximal inhibition (IC50) is 33.3 ± 2.3 µM.

On to `CN(C)C/C=C/C(=O)Nc1cc2c(Nc3ccc(F)c(Cl)c3)ncnc2cc1O[C@H]1CCOC1` [Afatinib, reference compound], for which the IC50 turned out to be 49.5 ± 2.5 µM. As for `CCN1CCC2(CC1)C/C(=N\N=C\c1ccc(N(C)C)cc1)c1ccccc1O2` [Compound 4c, 4-((E)-{(E)-[1′-Ethylspiro(chroman-2,4′-piperidin)-4-ylidene]hydrazono}methyl)-N,N-dimethylaniline], the IC50 amounted to 55.3 ± 3.3 µM.
